Experimental data published in patent publication US20110178064A1, “SPIRO CONDENSED […] DERIVATIVES FOR USE AS ANTIBACTERIAL” (A[…]&D, priority 2007, published 2011).

biological target: Escherichia coli DNA gyrase A/B tetramer (Escherichia coli, UniProt P0AES4+P0AES6); assay: DNA gyrase supercoiling activity fluorescence polarisation assay; type: biochemical
Experimental: The supercoiling reactions may be quenched by the addition of 10 microliters/well of 40 nM oligodeoxynucleotide probe in 3× triplex-forming buffer consisting of 150 mM NaCl, and 150 mM sodium acetate at pH 3.5. The oligodeoxynucleotide probe may be 5′-BODIPY-FL-labeled […]. After 60 minutes, the fluorescence anisotropy of the BODIPY-FL may be measured in a Tecan Ultra plate reader, using 485 nm excitation and 535 nm emission filters equipped with polarizers. The IC50 may be determined by nonliner regression using two control reactions. The first contains no test compound but 0.8% DMSO (100% activity) while the second control reaction contains 5 uM Ciprofloxacin and 0.8% DMSO (0% activity).

Sequence of Escherichia coli DNA gyrase A/B tetramer (P0AES4 whole entry, one chain of several): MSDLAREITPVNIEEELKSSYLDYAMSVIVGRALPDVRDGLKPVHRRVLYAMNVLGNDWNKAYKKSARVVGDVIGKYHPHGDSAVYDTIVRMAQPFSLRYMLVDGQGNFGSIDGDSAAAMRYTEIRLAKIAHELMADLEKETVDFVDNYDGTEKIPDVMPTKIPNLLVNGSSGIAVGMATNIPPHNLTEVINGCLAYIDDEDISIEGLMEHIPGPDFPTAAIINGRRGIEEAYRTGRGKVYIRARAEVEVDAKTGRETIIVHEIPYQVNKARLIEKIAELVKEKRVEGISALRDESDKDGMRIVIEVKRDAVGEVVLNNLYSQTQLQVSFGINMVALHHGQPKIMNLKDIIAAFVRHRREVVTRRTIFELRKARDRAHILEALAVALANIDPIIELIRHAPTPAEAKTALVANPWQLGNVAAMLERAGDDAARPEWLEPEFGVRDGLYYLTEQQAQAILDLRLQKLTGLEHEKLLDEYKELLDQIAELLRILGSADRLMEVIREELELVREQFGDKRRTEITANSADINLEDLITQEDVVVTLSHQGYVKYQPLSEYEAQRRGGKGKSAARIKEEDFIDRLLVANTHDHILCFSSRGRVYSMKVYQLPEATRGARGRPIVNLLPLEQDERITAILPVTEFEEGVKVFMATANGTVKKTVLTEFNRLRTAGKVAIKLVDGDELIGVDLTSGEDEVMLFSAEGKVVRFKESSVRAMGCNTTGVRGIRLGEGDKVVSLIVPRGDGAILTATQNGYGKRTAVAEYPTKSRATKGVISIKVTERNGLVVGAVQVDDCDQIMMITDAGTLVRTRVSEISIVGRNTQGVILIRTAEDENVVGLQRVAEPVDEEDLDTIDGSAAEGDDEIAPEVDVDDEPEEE

| SMILES | IC50 [µM] |
| --- | --- |
| Cc1ccc(-c2cnc3c(c2)CC2(C(=O)NC(=O)NC2=O)[C@H]2[C@H](C)O[C@H](C)CN32)s1 (relative stereo) [Example 29, (6aS,7S,9R)-rel-7,9-Dimethyl-3-(5-methylthiophen-2-yl)-6a,7,9,10-tetrahydro-2′H,5H-spiro[1,4oxazino[4,3-a][1,8]naphthyridine-6,5′-pyrimidine]-2′,4′,6′(1′H,3′H)-trione] | 9 |
| Cc1ccsc1-c1cnc2c(c1)CC1(C(=O)NC(=O)NC1=O)[C@H]1[C@H](C)O[C@H](C)CN21 (relative stereo) [Example 30, (6aS,7S,9R)-rel-7,9-Dimethyl-3-(3-methylthiophen-2-yl)-6a,7,9,10-tetrahydro-2′H,5H-spiro[1,4-oxazino[4,3-a][1,8]naphthyridine-6,5′-pyrimidine]-2′,4′,6′(1′H,3′H)-trione] | 12 |
| C[C@@H]1CN2c3ncc(-c4ccc(-c5nnn[nH]5)s4)cc3CC3(C(=O)NC(=O)NC3=O)[C@H]2[C@H](C)O1 (relative stereo) [Example 31, (6aS,7S,9R)-rel-7,9-Dimethyl-3-[5-(1H-tetrazol-5-yl)thiophen-2-yl]-6a,7,9,10-tetrahydro-2′H,5H-spiro[1,4-oxazino[4,3-a][1,8]naphthyridine-6,5′-pyrimidine]-2′,4′,6′(1′H,3′H)-trione] | 6 |
| C[C@@H]1CN2c3ncc(-c4cn(C)cn4)cc3CC3(C(=O)NC(=O)NC3=O)[C@H]2[C@H](C)O1 (relative stereo) [Example 33, (6aS,7S,9R)-rel-7,9-Dimethyl-3-(1-methyl-1H-imidazol-4-yl)-6a,7,9,10-tetrahydro-2′H,5H-spiro[1,4-oxazino[4,3-a][1,8]naphthyridine-6,5′-pyrimidine]-2′,4′,6′(1′H,3′H)-trione] | 48 |
| C[C@@H]1CN2c3ncc(-c4ncc[nH]4)cc3CC3(C(=O)NC(=O)NC3=O)[C@H]2[C@H](C)O1 (relative stereo) [Example 35, (6aS,7S,9R)-rel-3-(1H-Imidazol-2-yl)-7,9-dimethyl-6a,7,9,10-tetrahydro-2′H,5H-spiro[1,4-oxazino[4,3-a][1,8]naphthyridine-6,5′-pyrimidine]-2′,4′,6′(1′H,3′H)-trione] | > 40 |
| C[C@@H]1CN2c3ncc(-c4ccc(-c5ccn[nH]5)s4)cc3CC3(C(=O)NC(=O)NC3=O)[C@H]2[C@H](C)O1 (relative stereo) [Example 36, (6aS,7S,9R)-rel-7,9-Dimethyl-3-[5-(1H-pyrazol-5-yl)thiophen-2-yl]-6a,7,9,10-tetrahydro-2′H,5H-spiro[1,4-oxazino[4,3-a][1,8]naphthyridine-6,5′-pyrimidine]-2′,4′,6′(1′H,3′H)-trione] | 2 |
| C[C@@H]1CN2c3ncc(-c4c[nH]cn4)cc3CC3(C(=O)NC(=O)NC3=O)[C@H]2[C@H](C)O1 (relative stereo) [Example 37, (6aS,7S,9R)-rel-3-(1H-Imidazol-4-yl)-7,9-dimethyl-6a,7,9,10-tetrahydro-2′H,5H-spiro[1,4-oxazino[4,3-a][1,8]naphthyridine-6,5′-pyrimidine]-2′,4′,6′(1′H,3′H)-trione] | 12 |
| C[C@@H]1CN2c3ncc(-c4ccccn4)cc3CC3(C(=O)NC(=O)NC3=O)[C@H]2[C@H](C)O1 (relative stereo) [Example 38, (6aS,7S,9R)-rel-7,9-Dimethyl-3-(pyridin-2-yl)-6a,7,9,10-tetrahydro-2′H,5H-spiro[1,4-oxazino[4,3-a][1,8]naphthyridine-6,5′-pyrimidine]-2′,4′,6′(1′H,3′H)-trione] | 12 |
| C[C@@H]1CN2c3ncc(-c4nc5ccccc5[nH]4)cc3CC3(C(=O)NC(=O)NC3=O)[C@H]2[C@H](C)O1 (relative stereo) [Example 40, (6aS,7S,9R)-rel-3-(1H-Benzimidazol-2-yl)-7,9-dimethyl-6a,7,9,10-tetrahydro-2′H,5H-spiro[1,4-oxazino[4,3-a][1,8]naphthyridine-6,5′-pyrimidine]-2′,4′,6′(1′H,3′H)-trione] | 6 |
| C[C@@H]1CN2c3ncc(-c4ccc(Cl)cn4)cc3CC3(C(=O)NC(=O)NC3=O)[C@H]2[C@H](C)O1 (relative stereo) [Example 42, (6aS,7S,9R)-rel-3-(5-chloropyridin-2-yl)-7,9-dimethyl-6a,7,9,10-tetrahydro-2′H,5H-spiro[1,4-oxazino[4,3-a][1,8]naphthyridine-6,5′-pyrimidine]-2′,4′,6′(1′H,3′H)-trione] | 4 |
| COc1ccncc1-c1cnc2c(c1)CC1(C(=O)NC(=O)NC1=O)[C@H]1[C@H](C)O[C@H](C)CN21 (relative stereo) [Example 43, (6aS,7S,9R)-rel-3-(4-Methoxypyridin-3-yl)-7,9-dimethyl-6a,7,9,10-tetrahydro-2′H,5H-spiro[1,4-oxazino[4,3-a][1,8]naphthyridine-6,5′-pyrimidine]-2′,4′,6′(1′H,3′H)-trione] | 12 |
| C[C@@H]1CN2c3ncc(-c4cncnc4)cc3CC3(C(=O)NC(=O)NC3=O)[C@H]2[C@H](C)O1 (relative stereo) [Example 45, (6aS,7S,9R)-rel-7,9-Dimethyl-3-(pyrimidin-5-yl)-6a,7,9,10-tetrahydro-2′H,5H-spiro[1,4-oxazino[4,3-a][1,8]naphthyridine-6,5′-pyrimidine]-2′,4′,6′(1′H,3′H)-trione] | 30 |
| C[C@@H]1CN2c3ncc(-c4cccc5cccnc45)cc3CC3(C(=O)NC(=O)NC3=O)[C@H]2[C@H](C)O1 (relative stereo) [Example 47, (6aS,7S,9R)-rel-7,9-Dimethyl-3-(quinolin-8-yl)-6a,7,9,10-tetrahydro-2′H,5H-spiro[1,4-oxazino[4,3-a][1,8]naphthyridine-6,5′-pyrimidine]-2′,4′,6′(1′H,3′H)-trione] | > 83 |
| C[C@@H]1CN2c3ncc(-c4ccoc4)cc3CC3(C(=O)NC(=O)NC3=O)[C@H]2[C@H](C)O1 (relative stereo) [Example 48, (6aS,7S,9R)-rel-3-(Furan-3-yl)-7,9-dimethyl-6a,7,9,10-tetrahydro-2′H,5H-spiro[1,4-oxazino[4,3-a][1,8]naphthyridine-6,5′-pyrimidine]-2′,4′,6′(1′H,3′H)-trione] | 17 |
| Cc1noc(C)c1-c1cnc2c(c1)CC1(C(=O)NC(=O)NC1=O)[C@H]1[C@H](C)O[C@H](C)CN21 (relative stereo) [Example 49, (6aS,7S,9R)-rel-3-(3,5-Dimethylisoxazol-4-yl)-7,9-dimethyl-6a,7,9,10-tetrahydro-2′H,5H-spiro[1,4-oxazino[4,3-a][1,8]naphthyridine-6,5′-pyrimidine]-2′,4′,6′(1′H,3′H)-trione] | 30 |
| C[C@@H]1CN2c3ncc(-c4ccncc4)cc3CC3(C(=O)NC(=O)NC3=O)[C@H]2[C@H](C)O1 (relative stereo) [Example 50, (6aS,7S,9R)-rel-7,9-Dimethyl-3-(pyridin-4-yl)-6a,7,9,10-tetrahydro-2′H,5H-spiro[1,4-oxazino[4,3-a][1,8]naphthyridine-6,5′-pyrimidine]-2′,4′,6′(1′H,3′H)-trione] | 8 |
| C[C@@H]1CN2c3ncc(-c4cnccn4)cc3CC3(C(=O)NC(=O)NC3=O)[C@H]2[C@H](C)O1 (relative stereo) [Example 52, (6aS,7S,9R)-rel-7,9-Dimethyl-3-(pyrazin-2-yl)-6a,7,9,10-tetrahydro-2′H,5H-spiro[1,4-oxazino[4,3-a][1,8]naphthyridine-6,5′-pyrimidine]-2′,4′,6′(1′H,3′H)-trione] | 5 |
| C[C@@H]1CN2c3cnc(-c4ccccn4)cc3CC3(C(=O)NC(=O)NC3=O)[C@H]2[C@H](C)O1 (relative stereo) [Example 55, (6aS,7S,9R)-rel-7,9-Dimethyl-3-(pyridin-2-yl)-6a,7,9,10-tetrahydro-2′H,5H-spiro[1,4-oxazino[4,3-a][1,7]naphthyridine-6,5′-pyrimidine]-2′,4′,6′(1′H,3′H)-trione] | 21 |
| C[C@@H]1CN2c3cnc(-c4ccnn4C)cc3CC3(C(=O)NC(=O)NC3=O)[C@H]2[C@H](C)O1 (relative stereo) [Example 57, (6aS,7S,9R)-rel-7,9-dimethyl-3-(1-methyl-1H-pyrazol-5-yl)-6a,7,9,10-tetrahydro-2′H,5H-spiro[1,4-oxazino[4,3-a][1,7]naphthyridine-6,5′-pyrimidine]-2′,4′,6′(1′H,3′H)-trione] | 9 |
| C[C@@H]1CN2c3cnc(-c4cn[nH]c4)cc3CC3(C(=O)NC(=O)NC3=O)[C@H]2[C@H](C)O1 (relative stereo) [Example 59, (6aS,7S,9R)-rel-7,9-Dimethyl-3-(1H-pyrazol-4-yl)-6a,7,9,10-tetrahydro-2′H,5H-spiro[1,4-oxazino[4,3-a][1,7]naphthyridine-6,5′-pyrimidine]-2′,4′,6′(1′H,3′H)-trione] | 50 |
| C[C@@H]1CN2c3cnc(-c4cncnc4)cc3CC3(C(=O)NC(=O)NC3=O)[C@H]2[C@H](C)O1 (relative stereo) [Example 60, (6aS,7S,9R)-rel-7,9-Dimethyl-3-(pyrimidin-5-yl)-6a,7,9,10-tetrahydro-2′H,5H-spiro[1,4-oxazino[4,3-a][1,7]naphthyridine-6,5′-pyrimidine]-2′,4′,6′(1′H,3′H)-trione] | 6 |
| C[C@@H]1CN2c3cnc(-c4cccc5cccnc45)cc3CC3(C(=O)NC(=O)NC3=O)[C@H]2[C@H](C)O1 (relative stereo) [Example 62, (6aS,7S,9R)-rel-7,9-Dimethyl-3-(quinolin-8-yl)-6a,7,9,10-tetrahydro-2′H,5H-spiro[1,4-oxazino[4,3-a][1,7]naphthyridine-6,5′-pyrimidine]-2′,4′,6′(1′H,3′H)-trione] | 8 |
| C[C@@H]1CN2c3cnc(-c4ccoc4)cc3CC3(C(=O)NC(=O)NC3=O)[C@H]2[C@H](C)O1 (relative stereo) [Example 63, (6aS,7S,9R)-rel-3-(furan-3-yl)-7,9-dimethyl-6a,7,9,10-tetrahydro-2′H,5H-spiro[1,4-oxazino[4,3-a][1,7]naphthyridine-6,5′-pyrimidine]-2′,4′,6′(1′H,3′H)-trione] | 35 |
